Assay results as given in ChEMBL document CHEMBL5705899 (Biochem J, 2014).
Activity calls are given as the source filed them.

Experiments:
[1] = target: Serine/threonine-protein kinase Nek2 (Homo sapiens) (UniProt P51955); assay: Inhibition of human NEK2 at 1 uM using RB-CTF as substrate in presence of 33P-ATP by ProQinase assay
[2] = target: PI3K p110 beta/p85 alpha (Homo sapiens) (UniProt P27986+P42338); assay: Inhibition of recombinant human N-terminal His6-tagged PI3Kbeta (1 to 1070 residues)/p85A (1 to 724 residues) expressed in baculovirus expression system at 1 uM using diC8 PIP2 as substrate incubated for 60 mins by ADP-Glo assay
PI3K p110 beta/p85 alpha (Homo sapiens), sequence (P27986 2-724 limits assumed): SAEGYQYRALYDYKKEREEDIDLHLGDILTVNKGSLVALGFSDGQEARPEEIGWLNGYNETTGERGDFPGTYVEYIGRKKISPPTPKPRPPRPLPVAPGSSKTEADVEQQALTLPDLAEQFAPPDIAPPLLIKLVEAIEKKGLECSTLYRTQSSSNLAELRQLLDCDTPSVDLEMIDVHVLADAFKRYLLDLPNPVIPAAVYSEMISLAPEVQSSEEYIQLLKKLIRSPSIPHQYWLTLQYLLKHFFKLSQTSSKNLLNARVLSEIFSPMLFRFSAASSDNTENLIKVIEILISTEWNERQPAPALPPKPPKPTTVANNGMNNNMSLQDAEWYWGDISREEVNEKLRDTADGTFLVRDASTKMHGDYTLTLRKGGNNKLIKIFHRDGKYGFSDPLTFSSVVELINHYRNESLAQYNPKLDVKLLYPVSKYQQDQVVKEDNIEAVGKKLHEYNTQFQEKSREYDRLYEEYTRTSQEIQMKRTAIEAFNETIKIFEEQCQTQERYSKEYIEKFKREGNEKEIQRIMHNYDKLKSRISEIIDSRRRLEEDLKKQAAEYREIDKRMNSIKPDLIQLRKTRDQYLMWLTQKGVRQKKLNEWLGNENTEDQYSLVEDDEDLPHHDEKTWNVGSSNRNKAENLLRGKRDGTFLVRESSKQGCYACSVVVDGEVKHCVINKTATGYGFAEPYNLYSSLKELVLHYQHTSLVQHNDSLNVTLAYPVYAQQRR
PI3K p110 beta/p85 alpha (Homo sapiens), sequence (P42338 whole entry partner, the tested form may be a part): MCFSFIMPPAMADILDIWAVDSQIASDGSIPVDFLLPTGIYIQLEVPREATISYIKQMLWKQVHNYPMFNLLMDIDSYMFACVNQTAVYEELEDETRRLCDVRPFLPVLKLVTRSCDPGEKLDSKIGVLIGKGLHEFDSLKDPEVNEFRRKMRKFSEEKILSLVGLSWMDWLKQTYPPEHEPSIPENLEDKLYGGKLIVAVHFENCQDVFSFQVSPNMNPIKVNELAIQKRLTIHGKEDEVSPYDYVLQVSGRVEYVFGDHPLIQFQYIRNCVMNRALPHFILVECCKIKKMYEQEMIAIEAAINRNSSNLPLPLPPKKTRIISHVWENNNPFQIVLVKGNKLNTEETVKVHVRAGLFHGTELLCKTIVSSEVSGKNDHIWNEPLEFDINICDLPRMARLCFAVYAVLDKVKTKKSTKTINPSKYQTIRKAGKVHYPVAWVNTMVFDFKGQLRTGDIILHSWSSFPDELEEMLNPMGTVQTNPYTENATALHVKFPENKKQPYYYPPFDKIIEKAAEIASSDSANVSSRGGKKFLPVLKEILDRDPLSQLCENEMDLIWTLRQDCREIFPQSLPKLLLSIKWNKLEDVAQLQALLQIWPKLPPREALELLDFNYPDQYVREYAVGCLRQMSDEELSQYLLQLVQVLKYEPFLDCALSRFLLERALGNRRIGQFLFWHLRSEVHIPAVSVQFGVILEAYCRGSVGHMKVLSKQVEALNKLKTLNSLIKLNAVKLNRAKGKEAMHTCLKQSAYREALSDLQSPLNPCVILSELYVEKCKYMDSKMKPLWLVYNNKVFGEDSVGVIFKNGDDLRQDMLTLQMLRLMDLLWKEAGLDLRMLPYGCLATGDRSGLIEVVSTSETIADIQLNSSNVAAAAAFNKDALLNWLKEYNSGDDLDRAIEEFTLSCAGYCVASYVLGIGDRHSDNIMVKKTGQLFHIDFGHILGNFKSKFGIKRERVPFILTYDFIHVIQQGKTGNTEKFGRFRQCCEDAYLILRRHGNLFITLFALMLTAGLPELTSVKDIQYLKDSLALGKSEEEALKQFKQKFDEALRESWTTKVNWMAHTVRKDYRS

[3] = target: Serine/threonine-protein kinase Nek6 (Homo sapiens) (UniProt Q9HC98); assay: Inhibition of recombinant human His6-tagged NEK6 (8 to 313 residues) expressed in baculovirus infected Sf21 cells assessed as remaining activity at 1 uM using FLAKSFGSPNRAYKK as substrate incubated for 30 mins in presence of [gamma-33P]ATP by filter binding method relative to control
[4] = target: Serine/threonine-protein kinase PAK 6 (Homo sapiens) (UniProt Q9NQU5); assay: Inhibition of human PAK6 at 1 uM using bio-4xCHKT as substrate in presence of 33P-ATP by ProQinase assay
[5] = target: Activin receptor type-1 (Homo sapiens) (UniProt Q04771); assay: Inhibition of human ACVR1 at 1 uM using RBER-GSK3 as substrate in presence of 33P-ATP by ProQinase assay
[6] = target: Serine/threonine-protein kinase PAK 3 (Homo sapiens) (UniProt O75914); assay: Inhibition of human PAK3 at 1 uM using bio-4xCHKT as substrate in presence of 33P-ATP by ProQinase assay
Serine/threonine-protein kinase PAK 3 (Homo sapiens), sequence (O75914 whole entry, looked up, the tested form may be a part): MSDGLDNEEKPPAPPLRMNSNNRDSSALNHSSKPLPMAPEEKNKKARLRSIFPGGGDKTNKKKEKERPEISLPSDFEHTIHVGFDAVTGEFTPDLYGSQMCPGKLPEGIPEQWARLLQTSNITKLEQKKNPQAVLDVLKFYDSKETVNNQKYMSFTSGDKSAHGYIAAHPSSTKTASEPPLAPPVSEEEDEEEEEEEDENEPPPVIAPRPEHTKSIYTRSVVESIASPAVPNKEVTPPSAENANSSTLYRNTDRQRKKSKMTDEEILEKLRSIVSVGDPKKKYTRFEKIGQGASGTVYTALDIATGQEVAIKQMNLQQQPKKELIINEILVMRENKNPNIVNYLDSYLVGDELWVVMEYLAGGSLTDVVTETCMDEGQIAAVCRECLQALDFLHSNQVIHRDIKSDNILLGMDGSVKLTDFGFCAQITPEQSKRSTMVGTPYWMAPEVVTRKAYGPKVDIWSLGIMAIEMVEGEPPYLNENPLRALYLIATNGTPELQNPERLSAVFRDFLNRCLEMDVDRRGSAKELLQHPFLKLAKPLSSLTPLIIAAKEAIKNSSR

[7] = target: Phosphatidylinositol 4-phosphate 3-kinase C2 domain-containing subunit beta (Homo sapiens, UniProt O00750); assay: Inhibition of human PIK3C2B using PIP2/PS as substrate by ADP-Glo assay
Phosphatidylinositol 4-phosphate 3-kinase C2 domain-containing subunit beta, sequence (O00750 whole entry, the tested form may be a part): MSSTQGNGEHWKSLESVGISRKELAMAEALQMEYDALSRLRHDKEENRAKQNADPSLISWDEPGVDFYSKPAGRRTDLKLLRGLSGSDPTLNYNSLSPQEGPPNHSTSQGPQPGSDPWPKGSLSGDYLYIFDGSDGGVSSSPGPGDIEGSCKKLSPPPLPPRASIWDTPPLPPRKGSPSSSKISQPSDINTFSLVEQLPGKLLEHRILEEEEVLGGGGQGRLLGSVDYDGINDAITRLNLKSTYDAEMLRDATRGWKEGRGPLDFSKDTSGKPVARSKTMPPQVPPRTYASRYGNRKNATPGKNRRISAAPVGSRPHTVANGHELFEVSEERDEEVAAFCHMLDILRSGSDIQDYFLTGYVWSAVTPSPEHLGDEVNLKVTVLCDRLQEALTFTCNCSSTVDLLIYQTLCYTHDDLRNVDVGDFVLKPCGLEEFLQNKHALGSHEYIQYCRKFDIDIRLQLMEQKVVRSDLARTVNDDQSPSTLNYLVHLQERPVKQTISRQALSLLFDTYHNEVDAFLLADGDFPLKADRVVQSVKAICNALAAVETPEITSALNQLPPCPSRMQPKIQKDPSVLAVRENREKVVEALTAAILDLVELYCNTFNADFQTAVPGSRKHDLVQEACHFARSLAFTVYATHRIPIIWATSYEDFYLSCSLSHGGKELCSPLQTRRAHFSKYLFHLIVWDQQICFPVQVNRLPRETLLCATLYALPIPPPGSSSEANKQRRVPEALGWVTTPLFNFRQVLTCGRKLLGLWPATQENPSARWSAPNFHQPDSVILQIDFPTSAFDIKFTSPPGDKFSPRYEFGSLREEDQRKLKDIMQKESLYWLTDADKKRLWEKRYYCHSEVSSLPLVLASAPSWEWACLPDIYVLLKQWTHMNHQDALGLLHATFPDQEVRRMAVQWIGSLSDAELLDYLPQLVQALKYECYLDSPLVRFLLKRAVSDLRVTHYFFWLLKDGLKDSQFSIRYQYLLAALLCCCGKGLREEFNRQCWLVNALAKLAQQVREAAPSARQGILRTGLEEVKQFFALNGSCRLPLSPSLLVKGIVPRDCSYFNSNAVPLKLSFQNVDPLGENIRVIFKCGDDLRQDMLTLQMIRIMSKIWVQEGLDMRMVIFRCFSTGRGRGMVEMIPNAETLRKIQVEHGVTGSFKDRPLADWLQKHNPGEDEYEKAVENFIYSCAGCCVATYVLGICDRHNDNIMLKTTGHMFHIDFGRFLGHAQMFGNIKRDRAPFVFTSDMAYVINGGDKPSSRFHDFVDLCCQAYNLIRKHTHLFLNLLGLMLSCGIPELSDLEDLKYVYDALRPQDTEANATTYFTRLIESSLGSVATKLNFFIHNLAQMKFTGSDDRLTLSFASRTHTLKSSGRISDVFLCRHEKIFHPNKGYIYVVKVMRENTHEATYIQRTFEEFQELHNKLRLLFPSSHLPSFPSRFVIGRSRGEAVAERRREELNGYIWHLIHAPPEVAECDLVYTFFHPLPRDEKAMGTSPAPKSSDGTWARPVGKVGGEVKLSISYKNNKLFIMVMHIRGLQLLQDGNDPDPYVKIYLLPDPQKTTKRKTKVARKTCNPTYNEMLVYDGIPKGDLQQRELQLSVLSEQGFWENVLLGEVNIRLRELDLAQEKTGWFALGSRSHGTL

[8] = target: Serine/threonine-protein kinase PLK3 (Homo sapiens) (UniProt Q9H4B4); assay: Inhibition of human PLK3 at 1 uM using casein as substrate in presence of 33P-ATP by ProQinase assay
[9] = target: Homeodomain-interacting protein kinase 4 (Homo sapiens) (UniProt Q8NE63); assay: Inhibition of human HIPK4 at 1 uM using RBER-IRStide as substrate in presence of 33P-ATP by ProQinase assay
[10] = target: Dual serine/threonine and tyrosine protein kinase (Homo sapiens) (UniProt Q6XUX3); assay: Inhibition of human RIPK5 at 1 uM using RBER-CHKtide as substrate in presence of 33P-ATP by ProQinase assay
[11] = target: Phosphatidylinositol 3-kinase C2 domain-containing subunit gamma (Homo sapiens, UniProt O75747); assay: Inhibition of human PIK3C2G using PIP2/PS as substrate by ADP-Glo assay
[12] = target: Platelet-derived growth factor receptor beta (Homo sapiens) (UniProt P09619); assay: Inhibition of human PDGFRbeta at 1 uM using poly(Ala,Glu,Lys,Tyr) as substrate in presence of 33P-ATP by ProQinase assay
[13] = target: AMPK alpha1/beta2/gamma1 (Homo sapiens) (UniProt O43741+P54619+Q13131); assay: Inhibition of recombinant N-terminal His6-tagged human AMPKalpha1 (11 to 559 residues)/AMPKbeta2 (1 to 272 residues)/AMPKgamma1 (1 to 331 residues) expressed in baculovirus infected Sf21 cells assessed as remaining activity at 1 uM using SAMS as substrate incubated for 30 mins in presence of [gamma-33P]ATP relative to control
[14] = target: Ephrin type-A receptor 4 (Homo sapiens) (UniProt P54764); assay: Inhibition of recombinant human N-terminal GST-tagged EPHA4 (570 to 986 residues) expressed in Escherichia coli assessed as remaining activity at 1 uM using Poly (Glu,Tyr) as substrate incubated for 30 mins in presence of [gamma-33P]ATP by filter binding method relative to control
[15] = target: Cyclin-dependent kinase 5/CDK5 activator 1 (Homo sapiens) (UniProt Q00535+Q15078); assay: Inhibition of human CDK5/p35NCK at 1 uM using RBER-CHKtide as substrate in presence of 33P-ATP by ProQinase assay; type: protein-complex assay
[16] = target: Casein kinase I isoform gamma-2 (Homo sapiens) (UniProt P78368); assay: Inhibition of human CK1gamma2 at 1 uM using casein as substrate in presence of 33P-ATP by ProQinase assay
Casein kinase I isoform gamma-2 (Homo sapiens), sequence (P78368 whole entry, looked up, canonical isoform): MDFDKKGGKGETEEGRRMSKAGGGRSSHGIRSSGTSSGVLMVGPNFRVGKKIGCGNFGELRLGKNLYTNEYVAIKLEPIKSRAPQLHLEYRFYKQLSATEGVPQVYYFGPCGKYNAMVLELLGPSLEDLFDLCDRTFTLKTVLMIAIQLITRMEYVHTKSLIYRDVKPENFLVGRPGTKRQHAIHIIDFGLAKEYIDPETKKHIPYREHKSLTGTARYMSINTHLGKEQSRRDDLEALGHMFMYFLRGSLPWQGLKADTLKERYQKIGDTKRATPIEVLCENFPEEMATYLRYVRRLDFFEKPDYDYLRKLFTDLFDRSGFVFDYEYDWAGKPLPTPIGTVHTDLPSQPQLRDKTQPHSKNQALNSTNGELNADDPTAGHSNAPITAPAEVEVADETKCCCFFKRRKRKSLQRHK

[17] = target: Dual specificity tyrosine-phosphorylation-regulated kinase 2 (Homo sapiens) (UniProt Q92630); assay: Inhibition of human DYRK2 at 1 uM using RBER-IRStide as substrate in presence of 33P-ATP by ProQinase assay
[18] = target: Serine/threonine-protein kinase Sgk1 (Homo sapiens) (UniProt O00141); assay: Inhibition of human SGK1 at 1 uM using RBER-GSK3 as substrate in presence of 33P-ATP by ProQinase assay
[19] = target: Mitogen-activated protein kinase kinase kinase 9 (Homo sapiens) (UniProt P80192); assay: Inhibition of human MAP3K9 at 1 uM using RBER-GSK3 as substrate in presence of 33P-ATP by ProQinase assay
[20] = target: Eukaryotic translation initiation factor 2-alpha kinase 1 (Homo sapiens) (UniProt Q9BQI3); assay: Inhibition of human HRI at 1 uM using casein as substrate in presence of 33P-ATP by ProQinase assay
[21] = target: Protein kinase C delta type (Homo sapiens) (UniProt Q05655); assay: Inhibition of human PKCdelta at 1 uM using 3xChocktide-PKC as substrate in presence of 33P-ATP by ProQinase assay
[22] = target: RAC-beta serine/threonine-protein kinase (Homo sapiens) (UniProt P31751); assay: Inhibition of human AKT2 at 1 uM using RBER-GSK3 as substrate in presence of 33P-ATP by ProQinase assay
RAC-beta serine/threonine-protein kinase (Homo sapiens), sequence (P31751 whole entry): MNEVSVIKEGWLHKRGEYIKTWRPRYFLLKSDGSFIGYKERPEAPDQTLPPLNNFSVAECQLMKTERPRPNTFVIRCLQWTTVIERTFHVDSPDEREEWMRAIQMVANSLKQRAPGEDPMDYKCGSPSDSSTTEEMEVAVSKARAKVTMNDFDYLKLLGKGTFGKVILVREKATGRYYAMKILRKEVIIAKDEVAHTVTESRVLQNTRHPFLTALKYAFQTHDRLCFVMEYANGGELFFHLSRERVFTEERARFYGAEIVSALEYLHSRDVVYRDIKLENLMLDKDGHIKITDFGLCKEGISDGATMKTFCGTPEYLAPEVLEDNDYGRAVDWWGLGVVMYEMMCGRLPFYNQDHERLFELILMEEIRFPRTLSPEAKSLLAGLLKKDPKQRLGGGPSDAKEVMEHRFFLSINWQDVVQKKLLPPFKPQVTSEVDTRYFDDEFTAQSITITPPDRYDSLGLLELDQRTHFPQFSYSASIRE

[23] = target: Mitogen-activated protein kinase kinase kinase kinase 5 (Homo sapiens) (UniProt Q9Y4K4); assay: Inhibition of human MAP4K5 at 1 uM using casein as substrate in presence of 33P-ATP by ProQinase assay
[24] = target: Protein kinase C beta type (Homo sapiens) (UniProt P05771); assay: Inhibition of human PKCbeta1 at 1 uM using 3xChocktide-PKC as substrate in presence of 33P-ATP by ProQinase assay
[25] = target: Homeodomain-interacting protein kinase 2 (Homo sapiens) (UniProt Q9H2X6); assay: Inhibition of human HIPK2 at 1 uM using RBER-CHKtide as substrate in presence of 33P-ATP by ProQinase assay
[26] = target: Mitogen-activated protein kinase 15 (Homo sapiens) (UniProt Q8TD08); assay: Inhibition of recombinant human N-terminal His6-tagged ERK8 (2 to 544 residues) expressed in baculovirus infected Sf21 cells assessed as remaining activity at 1 uM using MBP as substrate incubated for 30 mins in presence of [gamma-33P]ATP by filter binding method relative to control

CC(C)(O)CNc1ncc(-c2ccnc(Nc3ccnc(Cl)c3)n2)c(CC2CC2)n1
> 10 µM: IC50 [7] | IC50 [11]
98%: Activity [3]
96%: Activity [13]
inactive: inhibition [1] | inhibition [2] | inhibition [4] | inhibition [5] | inhibition [6] | inhibition [8] | inhibition [9] | inhibition [10] | inhibition [12] | inhibition [15] | inhibition [16] | inhibition [17] | inhibition [18] | inhibition [19] | inhibition [20] | inhibition [21] | inhibition [22] | inhibition [23] | inhibition [24] | inhibition [25]
93%: Activity [14]
36%: Activity [26]
